From patent US6340689B1 (priority 1999, dated 2002)
In brackets after ≈: the same amount, converted by molar mass.

Tests used:
[1] = system: L. pneumophila serogroup 1; test: microbe, parasite or virus in culture; format: cell-based, Legionella pneumophila; conditions: Legionella pneumophila; for MIC: 48 h, read-out: MIC Range; for MIC90: L. pneumophila serogroup 1 (n = 85)
Other Legionella spp. = test: microbe, parasite or virus in culture; format: cell-based; conditions: for MIC: 48 h, read-out: MIC Range
L. dumoffii = test: organism not typed; format: cell-based; conditions: for MIC: 48 h, read-out: MIC Range
[2] = system: Erythromycin-susceptible L. pneumophila; format: cell-based, Legionella pneumophila; conditions: Erythromycin-susceptible L. pneumophila (n = 15); 4 × MIC; mean ± SD
[3] = system: L. pneumophila serogroup 2; test: microbe, parasite or virus in culture; format: cell-based; conditions: Legionella pneumophila; for MIC: 48 h, read-out: MIC Range
[4] = system: Erythromycin-susceptible Legionella spp. other than L. pneumophila; format: cell-based; conditions: Erythromycin-susceptible Legionella spp. (n = 13); 4 × MIC; mean ± SD
[5] = system: L. pneumophila serogroup 3; test: microbe, parasite or virus in culture; format: cell-based; conditions: Legionella pneumophila; for MIC: 48 h, read-out: MIC Range
L. micadadei = test: organism not typed; format: cell-based, L. micdadei; conditions: for MIC: 48 h, read-out: MIC Range
[6] = system: L. pneumophila serogroup 6; test: microbe, parasite or virus in culture; format: cell-based; conditions: Legionella pneumophila; for MIC: 48 h, read-out: MIC Range
[7] = system: L. pneumophila serogroup 4; test: microbe, parasite or virus in culture; format: cell-based; conditions: Legionella pneumophila; for MIC: 48 h, read-out: MIC Range
[8] = system: L. pneumophila serogroup 5; test: microbe, parasite or virus in culture; format: cell-based; conditions: Legionella pneumophila; for MIC: 48 h, read-out: MIC Range
[9] = system: L. pneumophila serogroup 8, 9; test: microbe, parasite or virus in culture; format: cell-based; conditions: Legionella pneumophila; for MIC: 48 h, read-out: MIC Range
[10] = system: L. pneumophila serogroup 7; test: microbe, parasite or virus in culture; format: cell-based; conditions: Legionella pneumophila; for MIC: 48 h, read-out: MIC Range
L. longbeacheae = test: organism not typed; format: cell-based; conditions: for MIC: 48 h, read-out: MIC Range
[11] = system: isolates of Legionella pneumophila and other Legionella spp.; test: microbe, parasite or virus in culture; format: cell-based

SMILES | MIC50 [1] [mg/L] | MIC [1] [mg/L] | MIC90 [1] [mg/L] | MIC50 (Other Legionella spp.) [mg/L] | MIC90 (Other Legionella spp.) [mg/L] | MIC (Other Legionella spp.) [mg/L] | MIC50 (L. dumoffii) [mg/L] | MIC90 (L. dumoffii) [mg/L] | MIC (L. dumoffii) [mg/L] | Mean PAE [2] [h] | MIC50 [3] [mg/L] | MIC90 [3] [mg/L] | MIC [3] [mg/L] | Mean PAE [4] [h] | MIC50 [5] [mg/L] | MIC90 [5] [mg/L] | MIC [5] [mg/L] | MIC50 (L. micadadei) [mg/L] | MIC90 (L. micadadei) [mg/L] | MIC (L. micadadei) [mg/L] | other results
CC[C@H]1OC(=O)[C@H](C)[C@@H](O[C@H]2C[C@@](C)(OC)[C@@H](O)[C@H](C)O2)[C@H](C)[C@@H](O[C@@H]2O[C@H](C)C[C@H](N(C)C)[C@H]2O)[C@](C)(O)C[C@@H](C)C(=O)[C@H](C)[C@@H](O)[C@]1(C)O [Erythromycin] | 0.25 (≈ 0.341 µM) | 0.03 to 1 (≈ 0.0409 to 1.36 µM) | 1 (≈ 1.36 µM) | 0.5 (≈ 0.681 µM) | 1 (≈ 1.36 µM) | 0.016 to 1 (≈ 0.0218 to 1.36 µM) | 0.25 (≈ 0.341 µM) | 0.5 (≈ 0.681 µM) | 0.25 to 0.5 (≈ 0.341 to 0.681 µM) | 0.93 ± 1 | 0.25 (≈ 0.341 µM) | 0.25 (≈ 0.341 µM) | 0.008 to 0.5 (≈ 0.0109 to 0.681 µM) | 2.06 ± 2 | 0.25 (≈ 0.341 µM) | 0.5 (≈ 0.681 µM) | 0.06 to 0.5 (≈ 0.0818 to 0.681 µM) | 0.5 (≈ 0.681 µM) | 1 (≈ 1.36 µM) | 0.25 to 1 (≈ 0.341 to 1.36 µM) | MIC50 [6]: 0.12 mg/L (≈ 0.164 µM); MIC90 [6]: 0.25 mg/L (≈ 0.341 µM); MIC [6]: 0.008 to 0.25 mg/L (≈ 0.0109 to 0.341 µM); MIC50 [7]: 0.5 mg/L (≈ 0.681 µM); MIC90 [7]: 0.5 mg/L (≈ 0.681 µM); MIC [7]: 0.016 to 0.5 mg/L (≈ 0.0218 to 0.681 µM); MIC50 [8]: 0.25 mg/L (≈ 0.341 µM); MIC90 [8]: 0.5 mg/L (≈ 0.681 µM); MIC [8]: 0.06 to 1 mg/L (≈ 0.0818 to 1.36 µM); MIC50 [9]: 0.25 mg/L (≈ 0.341 µM); MIC90 [9]: 0.25 mg/L (≈ 0.341 µM); MIC [9]: 0.25 mg/L (≈ 0.341 µM); MIC50 [10]: 0.12 mg/L (≈ 0.164 µM); MIC90 [10]: 0.5 mg/L (≈ 0.681 µM); MIC [10]: 0.12 to 0.5 mg/L (≈ 0.164 to 0.681 µM); MIC50 (L. longbeacheae): 0.25 mg/L (≈ 0.341 µM); MIC90 (L. longbeacheae): 0.5 mg/L (≈ 0.681 µM); MIC (L. longbeacheae): 0.008 to 0.5 mg/L (≈ 0.0109 to 0.681 µM)
Cc1c(F)c(N2CCNC(C)C2)cc2c1c(=O)c(C(=O)O)cn2C1CC1 (stereo not shown) [Grepafloxacin] | 0.016 (≈ 0.0445 µM) | 0.004 to 0.06 (≈ 0.0111 to 0.167 µM) | 0.016 (≈ 0.0445 µM) | 0.03 (≈ 0.0835 µM) | 0.03 (≈ 0.0835 µM) | 0.004 to 0.03 (≈ 0.0111 to 0.0835 µM) | 0.06 (≈ 0.167 µM) | 0.06 (≈ 0.167 µM) | 0.06 (≈ 0.167 µM) | 2.62 ± 3 | 0.008 (≈ 0.0223 µM) | 0.016 (≈ 0.0445 µM) | 0.004 to 0.03 (≈ 0.0111 to 0.0835 µM) | 1.67 ± 1 | 0.008 (≈ 0.0223 µM) | 0.016 (≈ 0.0445 µM) | 0.004 to 0.016 (≈ 0.0111 to 0.0445 µM) | 0.008 (≈ 0.0223 µM) | 0.016 (≈ 0.0445 µM) | 0.004 to 0.016 (≈ 0.0111 to 0.0445 µM) | MIC50 [6]: 0.008 mg/L (≈ 0.0223 µM); MIC90 [6]: 0.016 mg/L (≈ 0.0445 µM); MIC [6]: 0.004 to 0.016 mg/L (≈ 0.0111 to 0.0445 µM); MIC50 [7]: 0.008 mg/L (≈ 0.0223 µM); MIC90 [7]: 0.016 mg/L (≈ 0.0445 µM); MIC [7]: 0.008 to 0.016 mg/L (≈ 0.0223 to 0.0445 µM); MIC50 [8]: 0.016 mg/L (≈ 0.0445 µM); MIC90 [8]: 0.03 mg/L (≈ 0.0835 µM); MIC50 [9]: 0.008 mg/L (≈ 0.0223 µM); MIC90 [9]: 0.008 mg/L (≈ 0.0223 µM); MIC [9]: 0.008 mg/L (≈ 0.0223 µM); MIC50 [10]: ≤ 0.004 mg/L; MIC90 [10]: 0.008 mg/L (≈ 0.0223 µM); MIC [10]: 0.004 to 0.008 mg/L (≈ 0.0111 to 0.0223 µM); MIC50 (L. longbeacheae): 0.03 mg/L (≈ 0.0835 µM); MIC90 (L. longbeacheae): 0.06 mg/L (≈ 0.167 µM); MIC (L. longbeacheae): 0.004 to 0.06 mg/L (≈ 0.0111 to 0.167 µM); MIC90 [11]: 0.016 mg/L (≈ 0.0445 µM)
C[C@H]1COc2c(N3CCN(C)CC3)c(F)cc3c(=O)c(C(=O)O)cn1c23 [Levofloxacin] | 0.016 (≈ 0.0443 µM) | 0.004 to 0.016 (≈ 0.0111 to 0.0443 µM) | 0.016 (≈ 0.0443 µM) | 0.016 (≈ 0.0443 µM) | 0.016 (≈ 0.0443 µM) | 0.008 to 0.06 (≈ 0.0221 to 0.166 µM) | 0.016 (≈ 0.0443 µM) | 0.016 (≈ 0.0443 µM) | 0.016 (≈ 0.0443 µM) | 2.14 ± 2 | 0.008 (≈ 0.0221 µM) | 0.008 (≈ 0.0221 µM) | 0.004 to 0.016 (≈ 0.0111 to 0.0443 µM) | 1.35 ± 1 | 0.008 (≈ 0.0221 µM) | 0.016 (≈ 0.0443 µM) | 0.008 to 0.016 (≈ 0.0221 to 0.0443 µM) | 0.016 (≈ 0.0443 µM) | 0.016 (≈ 0.0443 µM) | 0.008 to 0.016 (≈ 0.0221 to 0.0443 µM) | MIC50 [6]: 0.008 mg/L (≈ 0.0221 µM); MIC90 [6]: 0.016 mg/L (≈ 0.0443 µM); MIC [6]: 0.008 to 0.016 mg/L (≈ 0.0221 to 0.0443 µM); MIC50 [7]: 0.016 mg/L (≈ 0.0443 µM); MIC90 [7]: 0.016 mg/L (≈ 0.0443 µM); MIC [7]: 0.004 to 0.016 mg/L (≈ 0.0111 to 0.0443 µM); MIC50 [8]: 0.008 mg/L (≈ 0.0221 µM); MIC90 [8]: 0.016 mg/L (≈ 0.0443 µM); MIC [8]: 0.004 to 0.016 mg/L (≈ 0.0111 to 0.0443 µM); MIC50 [9]: 0.008 mg/L (≈ 0.0221 µM); MIC90 [9]: 0.016 mg/L (≈ 0.0443 µM); MIC [9]: 0.008 to 0.016 mg/L (≈ 0.0221 to 0.0443 µM); MIC50 [10]: 0.008 mg/L (≈ 0.0221 µM); MIC90 [10]: 0.016 mg/L (≈ 0.0443 µM); MIC [10]: 0.008 to 0.016 mg/L (≈ 0.0221 to 0.0443 µM); MIC50 (L. longbeacheae): 0.016 mg/L (≈ 0.0443 µM); MIC90 (L. longbeacheae): 0.016 mg/L (≈ 0.0443 µM); MIC (L. longbeacheae): 0.008 to 0.016 mg/L (≈ 0.0221 to 0.0443 µM); MIC90 [11]: 0.016 mg/L (≈ 0.0443 µM)
